What all share (assay type): cell-based
One experiment relates to HCT116 cells. The experiment in a line: Effects on HCT116 colorectal cancer cell viability (cell titre blue, 72 hours). Conditions: Homo sapiens, HCT-116, HCT116 cell line.
In a further experiment the test system is HeLa cells. The experiment in a line: Arresting cells in mitosis (Mitotic Index, phosphorylated Histone H3 immunofluorescence). Particulars: HeLa cell line, 24 hours; for EC50: Homo sapiens, Mitotic Index, read-out: EC50. The procedure:
Assay to Measure the Effects of Compounds of the Invention on Arresting Cells in Mitosis
Inhibiting the ability of PLK1 to bind to its phosphopeptide binding partners through the PBD causes cells to arrest in mitosis. Experimentally, this is measured by assessing the number of cells which are in mitosis at a certain time after treatment with a PLK1-PBD inhibitor by immunofluorescent detection of phosphorylated Histone H3 (pH3), a marker which is only present in mitotic cells. PLK1-PBD inhibitors are expected to cause a dose-dependent increase in pH3-positive cells, which is reported as Mitotic Index (MI)—the percentage of cells which, at a given time, are positive for this mitotic mark. The following protocol has been used to measure MI: • 1. Plate HeLa cells at 10,000/well in 100 μL/well in clear flat-bottom 96-well plates and incubate overnight. • 2. Immediately prior to treatment, dilute compounds in medium in a 96-well round-bottom plate. Make up all compounds at 5 times final desired concentration on cells, and serially dilute 1:2 across the plate ensuring that there is 100 μL of each concentration (start with 200 μl of the top concentration on the left of the plate). […] Treat cells by adding 25 μL from the compound dilution plate to triplicate wells. • 4. Incubate cells with compound for 24 hours. • 5. After 24 hours, fixation and staining is carried out as follows: • 6. Dilute 37% formaldehyde in PBS to give a 12.95% solution by adding 3.5 mL formaldehyde to 6.5 mL of PBS. • 7. Add 50 μL of formaldehyde fixation solution directly to each well of cells (which already contain 125 μL medium). • 8. Incubate at room temp for 10 minutes. • 9. Remove fixative and add 100 μL/well PBS+0.1% Triton X-100 for 10 minutes. • 10. Aspirate and add 100 μL/well PBS+1% BSA. • 11. Aspirate and add 50 μL/well of primary antibody (anti-PH3 [1:2000]/anti-MPM2 [1:1000]) diluted in PBS+1% BSA. Incubate for 1 hour. • 12. Wash×2 with 100 μL/well PBS+1% BSA. • 13. Add 50 μL/well of secondary antibody plus Hoechst stain (anti-rabbit Alexafluor 488 [1:500]; anti-mouse Alexafluor 546 [1:500]+Hoechst 33342 [1:2500 final concentration=4 μg/mL])diluted in PBS+1% BSA. Incubate for 1 hour. • 14. Wash twice with 100 μL/well PBS+1% BSA. • 15. Aspirate and add 100 μL/well PBS. Plates can be stored at 4° C. in PBS for several weeks before scanning on the Cellomics Arrayscan. […] Scan on Cellomics using Target Activation Bioapplication. • 17. MI data emerging from the Cellomic Bioapplication can be used to plot MI versus compound concentration, and subsequently used to generate an EC50 value for each compound using an appropriate graphing/curve-fitting package such as GraphPad Prism.

In another experiment the test system is wild-type HeLa cell line. Briefly: Wild-type versus KRAS HeLa cell viability: wild-type KRAS transgene. Conditions: Homo sapiens; HeLa cells expressing wild-type KRAS, 72 hours; read-out: WT GI50. The procedure:
(§1) Assay to Measure the Effects of Compounds of the Invention on Wild-Type Versus KRAS HeLa Cell Viability
(§2) Identifying synthetic lethal interactions between targeted small molecule therapies and characterised oncogenic mutations is a goal of modern oncology drug discovery efforts. To this end, PLK1-PBD inhibitors were tested on HeLa cells engineered to inducibly express wild-type or oncogenic KrasG12V transgenes using the FLP-in/T-Rex system (Invitrogen). Cells were plated, and then treated with or without Doxycycline to induce transgene expression, and then treated with serially-diluted PBD inhibitors. After 72 hours of incubation, cell viability was assessed using the Cell Titre Blue reagent (Promega) and a BMG Pherastar plate reader. The effect of PBD inhibition on cell viability with either wild-type or oncogenic G12V KRAS was assessed using the graphing/curve-fitting packages in GraphPad Prism.

A further experiment concerns KRAS G12V HeLa cell line. The experiment in a line: Wild-type versus KRAS HeLa cell viability: oncogenic KrasG12V transgene. Particulars: Homo sapiens; HeLa cells expressing KRAS G12V, 72 hours. The procedure: as §1, §2
Experiment [1] relates to HCT116 cells (a mutant KRAS G-13D expressing cell line). The experiment in a line: Drug resistance studies in HCT116 cells. Particulars: five times the half maximal growth inhibiting amount, twenty two days.

SMILES strings stand for the structures. Where a name gives a salt, the structure may show the parent alone.

The text below walks through data of patent US11208405B2, “Pyrrole derivatives as PLK1 inhibitors” (SENTINEL ONCOLOGY LIMITED, priority 2017, dated 2021).

For the compound `CN(C)CCNC(=O)c1ccc(-c2ccc(-c3ccc(Br)cc3)n2-c2ccccc2C(F)(F)F)cc1` [Example 9, 4-[5-(4-Bromophenyl)-1-[2-(trifluoromethyl)phenyl]pyrrol-2-yl]-N-[2-(dimethylamino)ethyl]benzamide Hydrochloride], the figures for the GI50 in the experiment with HCT116 cells, in the experiment with wild-type HeLa cell line and in the experiment on KRAS G12V HeLa cell line were 30 nM, 50 nM and 20 nM, respectively. Besides, in the experiment on HeLa cells, the “% mitotic cells” value stood at 89%. Besides, the EC50 (commonly the concentration giving half of the maximal effect) with HeLa cells came out at 190 nM.
The like results for `CN(C)CCCNC(=O)c1cccc(-c2ccc(-c3ccc(Br)cc3)n2-c2ccccc2C(F)(F)F)c1` [Example 24] were, in that order, 490 nM, 260 nM, 80 nM, 77% and 620 nM.
In the same order, the values of `CNCCNC(=O)c1cccc(-c2ccc(-c3ccc(Br)cc3)n2-c2ccccc2C(F)(F)F)c1` [Example 23] are 390 nM, 240 nM, 80 nM, 79% and 740 nM.
For the compound `CC[C@@H]1C(=O)N(C)c2cnc(Nc3ccc(C(=O)NC4CCN(C)CC4)cc3OC)nc2N1C1CCCC1` [Example B12536, 4-[[(7R)-8-cyclopentyl-7-ethyl-5,6,7,8-tetrahydro-5-methyl-6-oxo-2-pteridinyl]amino]-3-methoxy-N-(1-methyl-4-piperidinyl)benzamide, reference compound], the “formation of drug-resistant colonies” value in experiment [1] is on record as “drug-resistant colonies were formed”.
On to `CN(C)CCCNC(=O)c1ccc(-c2ccc(-c3ccc(F)cc3)n2-c2ccccc2C(F)(F)F)cc1` [Example 60, hydrochloride], for which the concentration for 50% growth inhibition (GI50) (usually the concentration at which growth is held to half of that of the control) in the experiment with HCT116 cells came out at 60 nM; with wild-type HeLa cell line, 30 nM; in the experiment on KRAS G12V HeLa cell line it was 10 nM.
As for `CN(C)CCNC(=O)c1cccc(-c2ccc(-c3ccc(Br)cc3)n2-c2ccccc2C(F)(F)F)c1` [Example 2, 3-[5-(4-Bromophenyl)-1-[2-(trifluoromethyl)phenyl]pyrrol-2-yl]-N-[2-(dimethylamino)ethyl]benzamide Hydrochloride], in the experiment with HeLa cells, the “% mitotic cells” value is 86%. Also, in the experiment with HeLa cells, the concentration for a half-maximal effect (EC50) was 860 nM. Further, the 50% growth inhibitory concentration (GI50) in the experiment on wild-type HeLa cell line stood at 180 nM; in the experiment with KRAS G12V HeLa cell line, 50 nM.
Regarding `CN(C)CCNC(=O)c1ccc(-c2ccc(-c3ccccc3)n2-c2ccccc2C(F)(F)F)c(Cl)c1` [Example 37, hydrochloride], the GI50 was found to be 20 nM with HCT116 cells, 50 nM with wild-type HeLa cell line and 20 nM in the experiment on KRAS G12V HeLa cell line.
`CN(C)CCNC(=O)c1ccc(-c2ccc(-c3ccc(F)nc3)n2-c2ccccc2C(F)(F)F)cc1` [Example 42, hydrochloride]: the figures for the GI50 with HCT116 cells, in the experiment with wild-type HeLa cell line and in the experiment on KRAS G12V HeLa cell line were 380 nM, 130 nM and 50 nM, respectively.
In the same order, the values of `CN(C)CCCOc1ccc(-c2ccc(-c3ccc(Br)cc3)n2-c2ccccc2C(F)(F)F)cc1` [Example 35, hydrochloride] are 220 nM, 210 nM and 140 nM.
In the same order, the values of `CN(C)CCNC(=O)c1ccc(-c2ccc(-c3ccc(Br)cc3)n2-c2cnccc2C(F)(F)F)cc1` [Example 41] are 50 nM, 40 nM and 20 nM.
